33 molecules from US5116855A, “Rhodanine derivatives and pharmaceutical compositions” (Nisshin Flour Milling Co., Ltd., priority 1989, dated 1992) can be followed below.

This assay addresses T1, aldose reductase (Rattus norvegicus, UniProt P07943).
T1 construct: the lenses were excised and homogenized in cold distilled water; from tissue; host or cells: lens of male SD rats, homogenate supernatant (crude enzyme)
Briefly: Inhibitory activity against aldose reductase (crude enzyme from rat lenses, NADPH oxidation at 340 nm, D,L-glyceraldehyde substrate). Type of assay: biochemical. The note with it: aldose reductase from SD rat lenses, pH 6.2, 30° C.; for inhibition at 10 µM: pH 6.2, 10^-5 M; for inhibition at 10 µM / inhibition at 1 µM: read-out: Percentage of inhibition (%); for inhibition at 1 µM: pH 6.2, 10^-6 M. As for the experimental part: The compounds of the present invention were evaluated for the inhibitory activity against aldose reductase according to the following assay procedure.
Enzyme activity was assayed according to the modification [Biochemical Pharmacology, 25, 2505 (1976)] of the method described in J. Biol. Chem., 240, 877-882 (1965).
SD strain male rats were sacrificed by decapitation, the lenses were excised and homogenized in cold distilled water. The homogenate was then centrifuged and the supernatant was used as the crude aldose reductase solution.
Separately, a 0.1 M sodium phosphate buffer (pH 6.2) containing 0.4 M ammonium sulfate was prepared at 30° C. In this buffer were dissolved the present compound, the crude aldose reductase solution and nicotinamide-adenine dinucleotide phosphate, reduced form (NADPH). The mixture was preincubated at 30° C. for 3 minutes and the reaction was initiated by addition of D,L-glyceraldehyde. In this case, the concentration of the present compound dissolved was 10^-5 M and 10^-6 M, respectively. The total amount of the assay mixture was 1.0 ml, containing 0.16 mM of NADPH, 10 mM of D,L-glyceraldehyde and 0.010-0.016 units of aldose reductase.
The inhibitory activity of the present compounds against aldose reductase was measured using each 1.0 ml of the reaction mixture containing the present compound in the above concentration. In this measurement, the rate of NADPH oxidation was followed by recording the decrease in absorbance at 340 nm. The inhibitory activity of the present compounds against aldose reductase as measured was expressed in percentage of inhibition (%) as a relative activity based on a control value.

As usually defined, the inhibition is the share of the control response that was lost under treatment. Take `CCOC(=O)CCC(C=Cc1ccc(OC)c(OC)c1)=C1SC(=S)NC1=O` [Example 2, Ethyl 6-(3,4-dimethoxyphenyl)-4-(4-oxo-2-thioxo-5-thiazolidinylidene)-5-hexenoate]: the inhibition at 10 µM was found to be 72% and the inhibition at 1 µM came to 48.6%.
The corresponding values for `CCCCCCC(C=Cc1ccc(OCc2nn[nH]n2)cc1)=C1SC(=S)NC1=O` [Example 4] are 62.6% and 29.9%.
For the molecule `CCOC(=O)CCC(C=Cc1ccc(C#N)cc1)=C1SC(=S)NC1=O` [Example 7, Ethyl 6-(4-cyanophenyl)-4-(4-oxo-2-thioxo-5-thiazolidinylidene)-5-hexenoate], the inhibition at 10 µM is 50.9%.
With `CCOC(=O)CCC(C=Cc1ccc(C(=O)OC)cc1)=C1SC(=S)NC1=O` [Example 12, Ethyl 6-(4-methoxycarbonylphenyl)-4-(4-oxo-2-thioxo-5-thiazolidinylidene)-5-hexenoate], the inhibition at 10 µM worked out at 42.8%.
With `COC(=O)c1ccccc1NC(=O)C(C)=C1SC(=S)NC1=O` [Example 18, Methyl N-[2-(4-oxo-2-thioxo-5-thiazolidinylidene)propionyl]anthranilate], the inhibition at 10 µM is 84% and the inhibition at 1 µM was 62.6%.
As to `COC(=O)c1ccccc1NC(=O)CCCC(C)=C1SC(=S)NC1=O` [Example 19, Methyl N-[5-(4-oxo-2-thioxo-5-thiazolidinylidene)hexanoyl]anthranilate], the inhibition at 10 µM turned out to be 34.6%.
Consider `O=C1NC(=S)SC1=Cc1ccc(OCCCCc2nnn[nH]2)cc1` [Example 20, 5-{4-[4-(1H-Tetrazol-5-yl)butyloxy]benzylidene}-4-oxo-2-thioxothiazolidine], for which the inhibition at 10 µM came to 84% and the inhibition at 1 µM was 43.9%.
Taken in the same sequence, the figures for `O=C(O)CCC(C=Cc1ccc(C(=O)O)cc1)=C1SC(=S)NC1=O` [Example 29, 6-(4-Carboxyphenyl)-4-(4-oxo-2-thioxo-5-thiazolidinylidene)-5-hexenoic acid] were 82.8% and 38.5%.
For the molecule `O=C(O)CCC(C=Cc1cccs1)=C1SC(=S)NC1=O` [Example 30, 6-(2-Thienyl)-4-(4-oxo-2-thioxo-5-thiazolidinylidene)-5-hexenoic acid], the inhibition at 10 µM turned out to be 73%.
As to `Cc1ccsc1C=CC(CCC(=O)O)=C1SC(=S)NC1=O` [Example 31, 6-(3-Methyl-2-thienyl)-4-(4-oxo-2-thioxo-5-thiazolidinylidene)-5-hexenoic acid], the inhibition at 10 µM stood at 83.6% and the inhibition at 1 µM amounted to 39.8%.
Taken in the same sequence, the figures for `COc1cc(C=CC(C)=C2SC(=S)NC2=O)ccc1OCC(=O)O` [Example 32, 4-[3-(4-Oxo-2-thioxo-5-thiazolidinylidene)-1-butenyl]-2-methoxyphenoxyacetic acid] were 92.5% and 84.7%.
As for `CCC(CCc1cccn1CCC(=O)O)=C1SC(=S)NC1=O` [Example 34, 3-{2-[3-(4-Oxo-2-thioxo-5-thiazolidinylidene)pentyl]pyrrol-1-yl}propionic acid], the inhibition at 10 µM came to 80.8% and the inhibition at 1 µM amounted to 35.5%.
As for `O=C(O)CCC(C=Cc1ccco1)=C1SC(=S)NC1=O` [Example 35, 6-(2-Furyl)-4-(4-oxo-2-thioxo-5-thiazolidinylidene)-5-hexenoic acid], the inhibition at 10 µM is 72.3%.
As for `CC(C(=O)Nc1ccccc1C(=O)O)=C1SC(=S)NC1=O` [Example 36, N-[2-(4-Oxo-2-thioxo-5-thiazolidinylidene)propionyl]anthranilic acid], the inhibition at 10 µM was found to be 94% and the inhibition at 1 µM worked out at 80%.
For `CC(CCCC(=O)Nc1ccccc1C(=O)O)=C1SC(=S)NC1=O` [Example 37, N-[5-(4-Oxo-2-thioxo-5-thiazolidinylidene)hexanoyl]anthranilic acid], the inhibition at 10 µM was determined as 56.4%.
Take `CCOC(=O)COc1ccccc1C=CC(C)=C1SC(=S)NC1=O` [Example 39, Ethyl 2-[3-(4-oxo-2-thioxo-5-thiazolinylidene)-1-butenyl]phenoxacetate]: the inhibition at 10 µM worked out at 62.6% and the inhibition at 1 µM turned out to be 50.9%.
For the molecule `COC(=O)COc1ccccc1C=CC(C)=C1SC(=S)NC1=O` [Example 40, Methyl 2-[3-(4-oxo-2-thioxo-5-thiazolinylidene)-1-butenyl]phenoxyacetate], the inhibition at 10 µM turned out to be 38.8%.
Regarding `COC(=O)COc1ccccc1C=C(C)C=C1SC(=S)NC1=O` [Example 41, Methyl 2-[2-methyl-3-(4-oxo-2-thioxo-5-thiazolinylidene)-1-propenyl]phenoxyacetate], the inhibition at 10 µM was 86.2% and the inhibition at 1 µM is 48.5%.
`COC(=O)COc1ccc(C=CC(C)=C2SC(=S)NC2=O)cc1OC` [Example 42, Methyl 2-methoxy-4-[3-(4-oxo-2-thioxo-5-thiazolinylidene)-1-butenyl]phenoxyacetate]: the inhibition at 10 µM turned out to be 54.2% and the inhibition at 1 µM was 33.8%.
For the molecule `CCOC(=O)COc1ccc(CCC(C)=C2SC(=S)NC2=O)cc1OC` [Example 43, Ethyl 2-methoxy-4-[3-(4-oxo-2-thioxo-5-thiazolinylidene)butyl]phenoxyacetate], the inhibition at 10 µM was determined as 48.9% and the inhibition at 1 µM was 26.1%.
With `CCOc1cc(C=CC(C)=C2SC(=S)NC2=O)ccc1OCC(=O)OC` [Example 44, Methyl 2-ethoxy-4-[3-(4-oxo-2-thioxo-5-thiazolinylidene)-1-butenyl]phenoxyacetate], the inhibition at 10 µM stood at 39.1%.
As for `CCOc1cc(CCC(C)=C2SC(=S)NC2=O)ccc1OCC(=O)OC` [Example 45, Methyl 2-ethoxy-4-[3-(4-oxo-2-thioxo-5-thiazolinylidene)butyl]phenoxyacetate], the inhibition at 10 µM stood at 48.9%.
Regarding `COC(=O)COc1c(C=CC(C)=C2SC(=S)NC2=O)cccc1OC` [Example 46, Methyl 2-methoxy-6-(3-(4-oxo-2-thioxo-5-thiazolinylidene)-1-butenyl]phenoxyacetate], the inhibition at 10 µM was 34.3%.
As for `COC(=O)COc1c(OC)cc(C=CC(C)=C2SC(=S)NC2=O)cc1OC` [Example 48, Methyl 2,6-dimethoxy-4-[3-(4-oxo-2-thioxo-5-thiazolinylidene)-1-butenyl]phenoxyacetate], the inhibition at 10 µM is 69.1%.
`COC(=O)COc1ccc(Cl)cc1C=CC(C)=C1SC(=S)NC1=O` [Example 49, Methyl 4-chloro-2-[3-(4-oxo-2-thioxo-5-thiazolinylidene)-1-butenyl]phenoxyacetate]: the inhibition at 10 µM is 80% and the inhibition at 1 µM came out at 30.5%.
Regarding `CC(C=Cc1cc(Cl)ccc1OCC(=O)OCc1ccccc1)=C1SC(=S)NC1=O` [Example 50, Benzyl 4-chloro-2-[3-(4-oxo-2-thioxo-5-thiazolinylidene)-1-butenyl]phenoxyacetate], the inhibition at 10 µM amounted to 48%.
As to `CCOC(=O)COc1ccc(C=C(C)C=C2SC(=S)NC2=O)cc1OC` [Example 53, Ethyl 2-methoxy-4-[2-methyl-3-(4-oxo-2-thioxo-5-thiazolinylidene)-1-propenyl]phenoxyacetate], the inhibition at 10 µM was found to be 71.3% and the inhibition at 1 µM came to 32%.
The corresponding values for `COC(=O)COc1ccc(Br)cc1C=CC(C)=C1SC(=S)NC1=O` [Example 56, Methyl 4-bromo-2-[3-(4-oxo-2-thioxo-5-thiazolinylidene)-1-butenyl]phenoxyacetate] are 63.9% and 27.1%.
Turning to `COC(=O)COc1ccccc1C=C(C)C=C1SC(=S)NC1=O` [Example 63, Methyl 2-[2-methyl-3-(4-oxo-2-thioxo-5-thiazolinylidene)-1-propenyl]phenoxyacetate], the “Percentage of inhibition (%)” value (10^-5 M) worked out at 80.5% and the “Percentage of inhibition (%)” value (10^-6 M) is 32.2%.
On to `COC(=O)COc1ccc(OC)cc1C=CC(C)=C1SC(=S)NC1=O` [Example 65, Methyl 4-methoxy-2-[3-(4-oxo-2-thioxo-5-thiazolinylidene)-1-butenyl]phenoxyacetate], for which the inhibition at 10 µM is 55.2% and the inhibition at 1 µM worked out at 34.3%.
The corresponding values for `COC(=O)COc1ccc(C(F)(F)F)cc1C=CC(C)=C1SC(=S)NC1=O` [Example 66, Methyl 4-trifluoromethyl-2-[3-(4-oxo-2-thioxo-5-thiazolinylidene)-1-butenyl]phenoxyacetate] are 79.9% and 45.6%.
`CC(C=Cc1ccccc1OCC(=O)O)=C1SC(=S)NC1=O` [Example 67, 2-[3-(4-Oxo-2-thioxo-5-thiazolinylidene)-1-butenyl]phenoxyacetic acid]: the inhibition at 10 µM is 95.3% and the inhibition at 1 µM stood at 79.4%.
With `CC(=Cc1ccccc1OCC(=O)O)C=C1SC(=S)NC1=O` [Example 68, 2-[2-Methyl-3-(4-oxo-2-thioxo-5-thiazolinylidene)-1-propenyl]phenoxyacetic acid], the inhibition at 10 µM was found to be 93.7% and the inhibition at 1 µM came to 82.4%.
